Data taken from patent publication US10723694B2, “Propargyl-functionalized macrocyclic compounds” (KUWAIT UNIVERSITY, priority 2018, dated 2020).

How the values were obtained:
Assay type in all cases: physicochemical
[1] = Fluorescence lifetime by time correlated single photon counting (TCSPC); details: DMF
Description: Fluorescence lifetime (τF) refers to the average time that a molecule stays in its excited state before returning to its ground state by photon emission. The fluorescence lifetime values of the AzaPc1/Pc2-Pc5 compounds were determined by using time correlated single photon counting (TCSPC). All time-resolved fluorescence studies were carried out for the exemplary compounds in solution in DMF, and the fluorescence decays of the macrocycles were concluded in mono exponential curves.

[2] = Singlet oxygen quantum yield, chemical method with DPBF quencher; details: DMF, 414 nm
From the text: Transferring of energy from a triplet state of a photosensitizer such as Pc to ground state molecular oxygen leads to the production of singlet oxygen. There is a necessity of high efficiency of energy transfer between the excited triplet state of photosensitizer and the ground state of oxygen in order to generate large amounts of singlet oxygen, essential for PDT applications. The singlet oxygen quantum yield (ΦA) values give the amount of the generated singlet oxygen. This value is an indication of the potential provided by the compounds as photosensitizers in applications where singlet oxygen is required. The ΦΔ values for AzaPc1/Pc2-Pc5 were determined in DMF by a chemical method using 1,3-diphenylisobenzofuran (DPBF) as a quencher. The disappearance of DPBF at 414 nm was monitored using UV-Vis spectrophotometer. Many factors can be responsible for the magnitude of the determined singlet oxygen quantum yield, including triplet excited state energy, ability of substituents and solvents to quench the singlet oxygen, the triplet excited state lifetime and the efficiency of the energy transfer between the triplet excited state and the ground state of oxygen.

[3] = Fluorescence excitation and emission spectra in DMF; details: for Stokes shift ΔStokes: difference between excitation and emission maxima
Description: Fluorescence behaviors of the AzaPc1/Pc2-Pc5 compounds were evaluated in DMF solutions. FIGS. 12A-12E show absorption, fluorescence emission and excitation spectra of these complexes.
Excitation maxima appear at 629 nm for AzaPc1, 679 nm for Pc2, 678 nm for Pc3, 682 nm for Pc4 and 700 nm for Pc5 in DMF. Emission maxima appear at 639 nm, 683 nm, 686 nm, 688 nm and 707 nm for AzaPc1/Pc2-Pc5, respectively. The observed Stokes' shifts, which are differences between the excitation and emission wavelength maxima, are between 4 and 10 nm for all of the zinc (II) complexes (Table 1). The observed Stokes' shifts are consistent with those of typical zinc (II) phthalocyanine complexes.

[4] = Photodegradation under light irradiation; details: DMF
From the text: Photodegradation is an indicator of the stability of compounds, which is useful for determining the photosensitizing ability of the compounds as PDT agents. The stability of photosensitizers under light irradiation is important for photochemical processes such as PDT because photosensitizers need to survive for a specific period in the body. Photodegradation degree can be detected by photodegradation quantum yield (Φd), which depends on structure, light intensity, solvent used and concentration of a compound of interest. Photodegradation of a compound under light irradiation can be used to study the compound stability, which is important for those molecules intended for the application in photocatalytic reactions. Collapse of absorption spectra without any distortion of the shape of the absorption spectra confirms photo-degradation not associated with photo-transformation into different forms of Pcs absorbing light in the visible region. The spectral changes for all of the exemplary AzaPc1/Pc2-Pc5 compounds were determined in response to light irradiation, and photodegradation occurred without phototransformation, because only Q and B bands were decreased, i.e., no new band formation was observed.
Pc derivatives and their macrocyclic analogs generate singlet oxygen when they are illuminated by an appropriate light. The formed […] via photooxidation reactions. Generally, photodegradation of Pc/Pc-analog compounds by light irradiation results in formation of the phthalamide residue. The photodegradation behavior of AzaPc1/Pc2-Pc5 in DMF were determined. The Φd values of these novel systems are on the order of 10^−4 (Table 2), consistent with values for other Pcs containing different metals and substituents.

[5] = Ground state electronic absorption spectra (UV-Vis) in DMF; details: for log ε at λmax / λmax (Q band absorption): in DMF
Description: Electronic absorption, which is measured by UV-Vis spectroscopy, is one of the best spectroscopic techniques for determination of Pc formation and characterization of Pc compounds. Generally, two absorption bands are observed for Pc structures in their electronic absorption spectra. One band, known as Q, is observed at around 600-750 nm due to the π→π* transitions from the highest occupied molecular orbital (HOMO) to the lowest unoccupied molecular orbital (LUMO) of the Pc ring, while the other band, known as B, or the Soret band, is observed at around 300-450 nm due to transitions from deeper it levels to the LUMO. The ground state electronic absorption spectra of the studied novel Pcs were measured in DMF solution.
The ground state electronic absorption spectra show monomeric behavior evidenced by single (narrow) Q band absorptions, which is typical for metallated complexes. The Q bands appear around 680 nm for the symmetric Pc2 and both asymmetric Pc3 and Pc4 in DMF (Table 1). On the other hand, the non-peripheral Pc5 show approximately 20 nm red-shifted Q band absorption at 700 nm when compared to the peripheral counterparts in the solvent (Table 1). The observed red spectral shifts are typical for Pc molecules with substituents at the non-peripheral positions and are presumably due to linear combinations of the atomic orbitals (LCAO) coefficients at the non-peripheral positions of the HOMO being greater than those at the peripheral positions. As a result, the HOMO level is destabilized more at the non-peripheral site than it is at the peripheral one. Essentially, the energy gap (ΔE) between the HOMO and LUMO becomes smaller, resulting in a bathochromic shift. The 49 nm blue shift for AzaPc1 is caused by the additional nitrogen atoms instead of CH groups in the Pc macrocyclic system. The B-bands are broad due to the superimposition of the B1 and B2 bands in the 340 to 380 nm region.

[6] = Fluorescence quantum yield determination; details: DMF per text (Table 2 title prints DMSO)
From the text: Fluorescence emission occurs when an orbital electron of a photosensitizer relaxes from its singlet state to ground state upon emitting a photon of light. Fluorescence quantum yield (ΦF) indicates a measure of the efficiency of the fluorescence process and is defined as the ratio of the number of photons emitted to the number of photons absorbed. The fluorescence quantum yields (ΦF) may be determined using established methods described in existing literature. The ΦF values of the present AzaPc1/Pc2-Pc5 compounds are typical for those phthalocyanine compounds (Table 2). Particularly, ΦF values were measured to be 0.11 for AzaPc1, 0.16 for Pc2, 0.17 for Pc3, 0.14 for Pc4 and 0.11 for Pc5 in the exemplary DMF solvent system.

[7] = Aggregation studies (UV-Vis) in organic solvents and at different concentrations
From the text: Macrocycle Pcs generate high aggregation tendencies due to the intermolecular interactions that take place between their 18 π-electrons. Accordingly, this self-association process would minimize their solubility in most solvent systems and therefore affect their spectroscopic, photophysical, photochemical, and electrochemical properties. Generally, aggregation is highly dependent on the concentration, temperature, nature of the substituents and/or their position and orientation with respect to the Pc skeleton, nature of the solvent media, and the central metal ion in the Pc-cores.
Pc molecules can form two types of aggregates in dissolved systems—H-type and J-type-depending on the nature, position and/or orientation of the substituents. In general, Pcs form H-type aggregates in solution, whereas J-type aggregates occur rarely. The formation of J-type aggregates among Pc structures is significant, since J-type aggregation is photoactive, while H-type aggregation is not.
The aggregation properties for the AzaPc1/Pc2-Pc5 compounds were determined in different organic solvents, namely, DCM, chloroform, DMF, DMSO, ethanol, methanol, THF and toluene.
Aggregation behaviors for the AzaPc1/Pc2-Pc5 compounds were also investigated in DMF at different concentrations in order to establish a suitable concentration for further photophysical/photochemical studies.

SMILES	Fluorescence lifetime τF [1] [ns]	Singlet oxygen quantum yield ΦΔ [2]	λEm (emission maximum) [3] [nm]	λEx (excitation maximum) [3] [nm]	Stokes shift ΔStokes [3] [nm]	Photodegradation quantum yield Φd (×10^−4) [4]	Blue shift of Q band absorption ([5]; DMF, aza analogue versus Pc macrocycle) [nm]	log ε at λmax [5]	λmax (Q band absorption) [5] [nm]	Fluorescence quantum yield ΦF [6]	Aggregation in methanol [7]
C#CCOCc1cc(C)cc(COCC#C)c1Oc1nc2c(nc1Oc1c(COCC#C)cc(C)cc1COCC#C)C1=Nc3c4nc(Oc5c(COCC#C)cc(C)cc5COCC#C)c(Oc5c(COCC#C)cc(C)cc5COCC#C)nc4c4[n]3[Zn][n]3c(c5nc(Oc6c(COCC#C)cc(C)cc6COCC#C)c(Oc6c(COCC#C)cc(C)cc6COCC#C)nc5c3=NC3=NC(=N4)c4nc(Oc5c(COCC#C)cc(C)cc5COCC#C)c(Oc5c(COCC#C)cc(C)cc5COCC#C)nc43)=NC2=N1 [AzaPc1]	2.46	0.63	639	629	10	4.30 ×10^−4	49	5.07	629	0.14	–
C#CCOCc1cc(C)cc(COCC#C)c1Oc1cc2c(cc1Oc1c(COCC#C)cc(C)cc1COCC#C)C1=Nc3c4cc(Oc5c(COCC#C)cc(C)cc5COCC#C)c(Oc5c(COCC#C)cc(C)cc5COCC#C)cc4c4[n]3[Zn][n]3c(c5cc(Oc6c(COCC#C)cc(C)cc6COCC#C)c(Oc6c(COCC#C)cc(C)cc6COCC#C)cc5c3=NC3=NC(=N4)c4cc(Oc5c(COCC#C)cc(C)cc5COCC#C)c(Oc5c(COCC#C)cc(C)cc5COCC#C)cc43)=NC2=N1 [Pc2]	3.30	0.60	683	679	4	1.58 ×10^−4	–	5.33	–	0.16	–
C#CCOCc1cc(C)cc(COCC#C)c1Oc1cc2c(cc1Cl)C1=Nc3c4cc(Oc5c(COCC#C)cc(C)cc5COCC#C)c(Cl)cc4c4[n]3[Zn][n]3c(c5cc(Cl)c(Oc6c(COCC#C)cc(C)cc6COCC#C)cc5c3=NC3=NC(=N4)c4cc(Oc5c(COCC#C)cc(C)cc5COCC#C)c(Cl)cc43)=NC2=N1 [Pc3]	2.84	0.60	686	678	8	1.40 ×10^−4	–	5.33	–	0.17	–
C#CCOCc1cc(C)cc(COCC#C)c1Oc1ccc2c(c1)C1=NC2=Nc2c3cc(Oc4c(COCC#C)cc(C)cc4COCC#C)ccc3c3[n]2[Zn][n]2c(c4ccc(Oc5c(COCC#C)cc(C)cc5COCC#C)cc4c2=NC2=NC(=N3)c3cc(Oc4c(COCC#C)cc(C)cc4COCC#C)ccc32)=N1 [Pc4]	3.37	0.57	688	682	6	1.12 ×10^−4	–	5.21	–	0.14	small H-type aggregates were detected
[Zn+2].c1ccc2c(c1)-c1nc-2nc2[n-]c(nc3nc([n-]c4nc(n1)-c1ccccc1-4)-c1ccccc1-3)c1ccccc21 [Std-ZnPc, zinc(II) phthalocyanine, reference compound]	1.03	0.56	676	670	6	0.23 ×10^−4	–	5.37	670	0.17	–
